Test results taken from publication PMC9562005, “The Kinetic Mechanism of 3′-5′ Exonucleolytic Activity of AP Endonuclease Nfo from E. coli” (Cells, 2022).

Molecular target: T1, Nfo (AP endonuclease Nfo, endonuclease IV) (Escherichia coli, UniProt P0A6C1)
T1 construct: full-length from pET-11a with nfo gene, expressed in E. coli BL21(DE3); 30 kDa, 3 Zn2+ in active site; the PDB entries are earlier structures of Nfo-DNA complexes
Test: stopped-flow 2-aminopurine fluorescence, inhibition of […]'-5' exonuclease
Type: biochemical

Row | IC50 | SMILES
1 | 3.2 ± 0.4 mM | Nc1nc2c(ncn2[C@H]2C[C@H](O)[C@@H](COP(=O)(O)O)O2)c(=O)[nH]1 [2′-deoxyguanosine monophosphate]
2 | 4.4 ± 0.5 mM | Cc1cn([C@H]2C[C@H](O)[C@@H](COP(=O)(O)O)O2)c(=O)[nH]c1=O [thymidine monophosphate]
